Assay results taken from the supplement of paper PMC10307832.

How the values were obtained:
Test in all cases: relative viability (nuclei count vs DMSO), 5 days (fraction); higher = more cells survive
RO-3306 + Palbociclib = compound: C1=CC2=C(C=CC(=C2)C=C3C(=O)NC(=NCC4=CC=CS4)S3)N=C1 [RO-3306] + CC(=O)c1c(C)c2cnc(Nc3ccc(N4CCNCC4)cn3)nc2n(C2CCCC2)c1=O [Palbociclib] (partner 0.5 µM)
How it was run: (§1)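 The day after seeding in 1536-well plates, lung cancer cell lines were treated by pin tool with a single drug, or with a fixed anchor-drug dose together with five library-drug doses (not always all listed) in √10 steps. After 5 days, a combined fix-and-stain solution (final 0.05% Triton X-100, 1% formaldehyde, 1 ug/ml Hoechst) was added. Nuclei counted on 4× images gave relative viability as treated counts over vehicle counts, reported as the median of duplicate plates.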

RO-3306 + Tozasertib = compound: C1=CC2=C(C=CC(=C2)C=C3C(=O)NC(=NCC4=CC=CS4)S3)N=C1 [RO-3306] + Cc1cc(Nc2cc(N3CCN(C)CC3)nc(Sc3ccc(NC(=O)C4CC4)cc3)n2)n[nH]1 [Tozasertib] (partner 0.1 µM)
How it was run: as §1

[1] = compound: O=S(=O)(c1ccccc1)N(CC(F)(F)F)c1ccc(C(O)(C(F)(F)F)C(F)(F)F)cc1 + CC(=O)c1c(C)c2cnc(Nc3ccc(N4CCNCC4)cn3)nc2n(C2CCCC2)c1=O [Palbociclib] (partner 0.5 µM)
How it was run: as §1

[2] = compound: O=S(=O)(c1ccccc1)N(CC(F)(F)F)c1ccc(C(O)(C(F)(F)F)C(F)(F)F)cc1 + Cc1cc(Nc2cc(N3CCN(C)CC3)nc(Sc3ccc(NC(=O)C4CC4)cc3)n2)n[nH]1 [Tozasertib] (partner 0.1 µM)
How it was run: as §1

## UMC-11
RO-3306 + Palbociclib; first compound 0.01 µM
  relative viability: 0.305
RO-3306 + Palbociclib; first compound 0.03162 µM
  relative viability: 0.319
RO-3306 + Palbociclib; first compound 0.1 µM
  relative viability: 0.297
RO-3306 + Palbociclib; first compound 0.3162 µM
  relative viability: 0.309
RO-3306 + Palbociclib; first compound 1 µM
  relative viability: 0.277
RO-3306 + Tozasertib; first compound 0.01 µM
  relative viability: 0.174
RO-3306 + Tozasertib; first compound 0.03162 µM
  relative viability: 0.225
RO-3306 + Tozasertib; first compound 0.1 µM
  relative viability: 0.199
RO-3306 + Tozasertib; first compound 0.3162 µM
  relative viability: 0.213
RO-3306 + Tozasertib; first compound 1 µM
  relative viability: 0.194
[1]; first compound 0.8 µM
  relative viability: 0.339
[1]; first compound 2.53 µM
  relative viability: 0.346
[1]; first compound 8 µM
  relative viability: 0.311
[2]; first compound 0.8 µM
  relative viability: 0.215
[2]; first compound 2.53 µM
  relative viability: 0.22
[2]; first compound 8 µM
  relative viability: 0.237
